Experimental data published in patent publication US7232912B2, “Indazole compounds, pharmaceutical compositions, and methods for mediating or inhibiting cell proliferation” (Agouron Pharmaceuticals, Inc., priority 2000, dated 2007).

Columns and labels:
HCT 116 cell line = experiment: Inhibition of Cell Growth (MTT tetrazolium salt assay); format: cell-based; settings: Homo sapiens, HCT 116, MTT; for IC50: 50% inhibition of growth, read-out: HCT 116 IC50; for IC90: read-out: HCT 116 IC90
Experimental: Inhibition of Cell Growth: Assessment of Cytotoxicity
Inhibition of cell growth was measured using the tetrazolium salt assay, which is based on the ability of viable cells to reduce 3-(4,5-dimethylthiazol-2-yl)-2,5-[2H]-diphenyltetrazolium bromide (MTT) to formazan (Mossman, Journal of Immunological Methods, vol. 65 (1983), pp. 55–58). The water-insoluble purple formazan product was then detected spectrophotometrically. The HCT 116 cell line was grown in 96-well plates. Cells were plated in the appropriate medium at a volume of 135 μl/well in McCoy's 5A Medium. Plates were incubated for four hours before addition of inhibitor compounds. Different concentrations of inhibitor compounds were added in 0.5% (v/v) dimethylsulfoxide (15 μL/well), and cells were incubated at 37° C. (5% CO2) for four to six days (depending on cell type). At the end of the incubation, MTT was added to a final concentration of 0.2 mg/mL, and cells were incubated for 4 hours more at 37° C. After centrifugation of the plates and removal of medium, the absorbance of the formazan (solubilized in dimethylsulfoxide) was measured at 540 nm. The concentration of inhibitor compound causing 50% inhibition of growth was determined from the linear portion of a semi-log plot of inhibitor concentration versus percentage inhibition. All results were compared to control cells treated only with 0.5% (v/v) dimethylsulfoxide.

CDK2/cyclin A = biological target: T1, CDK2/cyclin A (Homo sapiens, UniProt P24941); experiment: Inhibition of CDK2/Cyclin A Retinoblastoma Kinase Activity; format: biochemical; settings: apparent Ki
T1 construct: made in house; host or cells: CDK2: insect cells (baculovirus); cyclin A: E. coli
Experimental: (§1) Cyclin-dependent kinase activity was measured by quantifying the enzyme-catalyzed, time-dependent incorporation of radioactive phosphate from [^32P]ATP or [^33P]ATP into a protein substrate. Unless noted otherwise, assays were performed in 96-well plates in a total volume of 50 μL, in the presence of 10 mM HEPES (N-[2-hydroxyethyl]piperazine-N′-[2-ethanesulfonic acid]) (pH 7.4), 10 mM MgCl2, 25 μM adenosine triphosphate (ATP), 1 mg/mL ovalbumin, 5 μg/mL leupeptin, 1 mM dithiothreitol, 10 mM beta-glycerophosphate, 0.1 mM sodium vanadate, 1 mM sodium fluoride, 2.5 mM ethylene glycol-bis(β-aminoethyl ethKer)-N,N,N′N′-tetraacetic acid (EGTA), 2% (v/v) dimethylsulfoxide, and 0.03–0.4 μCi [^32/33P]ATP per reaction. Reactions were initiated with appropriate enzyme, incubated at 30° C., and terminated after 20 minutes by the addition of ethylenediaminetetraacetic acid (EDTA) to 250 mM. The phosphorylated substrate was then captured on a nitrocellulose or phosphocellulose membrane using a 96-well filtration manifold, and unincorporated radioactivity was removed by repeated washing with 0.85% phosphoric acid. Radioactivity was quantified by exposing the dried membranes to a phosphorimager.
(§2) Apparent Ki values were measured by assaying enzyme activity in the presence of different inhibitor compound concentrations and subtracting the background radioactivity measured in the absence of enzyme. Inhibition data were fit to an equation for competitive inhibition using Kaleidagraph (Synergy Software), or were fit to an equation for competitive tight-binding inhibition using the software KineTic (BioKin, Ltd.).
Inhibition of CDK2/Cyclin A Retinoblastoma Kinase Activity
CDK2 was purified using published methodology (Rosenblatt et al., “Purification and Crystallization of Human Cyclin-dependent Kinase 2,” J. Mol. Biol., vol. 230, 1993, pp. 1317–1319) from insect cells that had been infected with a baculovirus expression vector. […] A complex of CDK2 and proteolyzed cyclin A was prepared and purified by gel filtration. The substrate for this assay was the same Rb substrate fragment used for the CDK4 assays, and the methodology of the CDK2/cyclin A and the CDK4/cyclin D3 assays was essentially the same, except that CDK2 was present at 150 nM or 5 nM. Ki values were measured as described above.

FGFR1 tyrosine kinase = biological target: T2, FGFR1 tyrosine kinase (Homo sapiens, UniProt P11362, C488A/C584S/L457V); experiment: Inhibition of phosphorylated FGF receptor tyrosine kinase activity; format: biochemical; settings: for inhibition at 1 µM: read-out: FGF % Inhib. at 1 μM
T2 construct: the cytosolic domain of FGFR1 tyrosine kinase (amino acids 456–766); made in house; host or cells: Sf9 insect cells (baculovirus)
Experimental: Inhibition of Phosphorylated FGF Receptor and LCK Tyrosine Kinase Activity
Cloning, expression and purification of the cytosolic domain of FGFR1 tyrosine kinase (amino acids 456–766) containing three amino acid substitutions (L457V, C488A, and C584S) were conducted as previously described (Mohammadi, M., Schlessinger, J., & Hubbard, S. R. (1996) Cell 86, 577–587). This domain was expressed in Sf9 insect cells using a baculovirus expression vector, and protein was purified using conventional techniques. The LCK tyrosine kinase was expressed in insect cells as an N-terminal deletion starting from amino acid 223 to the end of the protein at amino acid 509. The N-terminus of the protein also had two amino acid substitutions, P223M and C 224D. Kinases were purified using conventional chromatographic methods.
Tyrosine kinase activity was measured using a coupled, continuous spectrophotometric assay, in which production of phosphorylated poly(Glu, Tyr; 4:1) substrate and ADP is coupled to the pyruvate kinase-catalyzed transfer of a phosphate from phosphoenolpyruvate to ADP, with generation of pyruvate and regeneration of ATP. Pyruvate production is in turn coupled to the lactate dehydrogenase-catalyzed reduction of pyruvate to form lactate, with concomitant conversion of NADH to NAD+. Loss of NADH is monitored by measuring absorbance at 340 nm (see e.g., Technikova-Dobrova et al., “Spectrophotometric determination of functional characteristics of protein kinases with coupled enzymatic assay,” FEBS Letters, vol. 292 (1991), pp. 69–72). Enzyme activity was measured in the presence of 200 mM HEPES (pH 7.5), 2 mM phosphoenolpyruvate, 0.3 mM NADH, 20 mM MgCl2, 100 μM ATP, 5 mM DTT, 5.1 or 25 mM poly (Glu,Tyr) 4:1 for P-FGF or P-LCK assays, respectively, and 15 units/mL each of pyruvate kinase and lactate dehydrogenase. Phosphorylated FGF receptor kinase was present at 100 nM and phosphorylated LCK kinase was present at 50 nM. Assays were performed under initial rate conditions at 37° C., and rates were corrected for any background rate measured in the absence of enzyme. Percent inhibition was calculated relative to control enzyme assayed in the presence of 2% (v/v) DMSO.

CDK4/cyclin D3 = CDK4/cyclin D3 (Homo sapiens, UniProt P11802); experiment: Inhibition of CDK4/Cyclin D Retinoblastoma Kinase Activity; format: biochemical; settings: apparent Ki
Experimental: as §1, §2
Inhibition of CDK4/Cyclin D Retinoblastoma Kinase Activity
A complex of human CDK4 and cyclin D3, or a complex of human CDK4 and genetically truncated (1–264) cyclin D3, was purified using traditional biochemical chromatographic techniques from insect cells that had been co-infected with the corresponding baculovirus expression vectors (see e.g., Meijer and Kim, “Chemical Inhibitors of Cyclin-Dependent Kinases,” Methods in Enzymol,. vol. 283 (1997), pp. 113–128.). The enzyme complex (5 or 50 nM) was assayed with 0.3–0.5 μg of purified recombinant retinoblastoma protein fragment (Rb) as a substrate. The engineered Rb fragment (residues 386–928 of the native retinoblastoma protein; 62.3 kDa) contains the majority of the phosphorylation sites found in the native 106-kDa protein, as well as a tag of six histidine residues for ease of purification. Phosphorylated Rb substrate was captured by microfiltration on a nitrocellulose membrane and quantified using a phosphorimager as described above. For measurement of tight-binding inhibitors, the enzyme complex concentration was lowered to 5 nM, and the assay duration was extended to 60 minutes, during which the time-dependence of product formation was linear.

T2 sequence (P11362 456-766 L457V/C488A/C584S): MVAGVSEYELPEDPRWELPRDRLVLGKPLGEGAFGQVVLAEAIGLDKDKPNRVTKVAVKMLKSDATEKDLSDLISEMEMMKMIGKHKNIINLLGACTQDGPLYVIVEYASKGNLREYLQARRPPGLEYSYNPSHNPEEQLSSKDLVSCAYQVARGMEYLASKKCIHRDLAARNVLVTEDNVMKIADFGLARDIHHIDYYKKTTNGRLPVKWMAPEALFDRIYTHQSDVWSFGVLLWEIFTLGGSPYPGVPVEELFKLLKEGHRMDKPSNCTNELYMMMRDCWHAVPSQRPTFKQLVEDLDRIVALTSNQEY
Sequence of CDK4/cyclin D3 (P11802 2-303 limits assumed): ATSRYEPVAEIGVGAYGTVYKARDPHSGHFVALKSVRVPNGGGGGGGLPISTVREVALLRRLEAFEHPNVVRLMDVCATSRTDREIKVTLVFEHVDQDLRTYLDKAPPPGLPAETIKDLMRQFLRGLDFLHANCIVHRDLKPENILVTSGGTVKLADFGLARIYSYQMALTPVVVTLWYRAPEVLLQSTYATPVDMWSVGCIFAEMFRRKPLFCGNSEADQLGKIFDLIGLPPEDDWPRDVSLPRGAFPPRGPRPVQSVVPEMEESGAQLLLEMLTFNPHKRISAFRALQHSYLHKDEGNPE
Sequence of CDK4/cyclin D3 (P30281 1-264 limits assumed, further chain): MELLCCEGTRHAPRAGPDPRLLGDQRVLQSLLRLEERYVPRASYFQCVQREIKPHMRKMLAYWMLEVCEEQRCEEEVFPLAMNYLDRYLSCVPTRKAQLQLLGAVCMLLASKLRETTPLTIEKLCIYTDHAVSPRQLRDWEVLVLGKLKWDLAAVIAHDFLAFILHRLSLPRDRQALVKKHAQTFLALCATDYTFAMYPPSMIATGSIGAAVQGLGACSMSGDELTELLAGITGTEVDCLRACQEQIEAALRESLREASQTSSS

| Compound | IC50 (HCT 116 cell line) [nM] | IC90 (HCT 116 cell line) [nM] | Ki (CDK2/cyclin A) [nM] | inhibition at 1 µM (FGFR1 tyrosine kinase) [%] | Ki (CDK4/cyclin D3) [nM] | Ki (FGFR1 tyrosine kinase) [nM] |
| --- | --- | --- | --- | --- | --- | --- |
| Clc1cccc2[nH]c(-c3n[nH]c4ccc(-c5cncc6ccccc56)cc34)nc12 [Example 19, 4-[3-(4-Chloro-1H-benzoimidazol-2-yl)-1H-indazol-5-yl]-isoquinoline] | 780 | 1600 | 1 | 31.3 | 54 |  |
| CN1CCN(c2ccc3[nH]c(-c4n[nH]c5ccc(-c6cncc7ccccc67)cc45)nc3c2)CC1 [Example 20, 4-{3-[5-(4-Methyl-piperazin-1-yl)-1H-benzoimidazol-2-yl]-1H-indazol-5-yl}-isoquinoline] | 70 | 400 | 0.93 | 96.9 | 2.1 |  |
| Cc1c(O)cccc1-c1ccc2[nH]nc(-c3nc4c(CO)cccc4[nH]3)c2c1 [Example 23, 3-[3-(4Hydroxymethyl-1H-benzoimidazol-2-yl)-1H-indazol-5-yl]-2-methyl-phenol] | 4000 | 5000 | 41 |  | 65 | 800 |
| OCCc1cccc2[nH]c(-c3n[nH]c4ccc(-c5cncc6ccccc56)cc34)nc12 [Example 30] | 180 | 620 | 1 | 52.4 | 11 |  |
| CNCc1cccc2[nH]c(-c3n[nH]c4ccc(-c5cncc6ccccc56)cc34)nc12 [Example 32, [2-(5-Isoquinolin-4-yl-1H-indazol-3-yl)-1H-benzoimidazol-4-yl-methyl]-methyl-amine] | 86 | 230 | 0.25 | 29.7 | 0.41 |  |
| c1ccc2c(-c3ccc4[nH]nc(-c5nc6c(CN7CCCC7)cccc6[nH]5)c4c3)cncc2c1 [Example 33, 4-[3-(4Pyrrolidin-1-ylmethyl-1H-benzoimidazol-2-yl)-1H-indazol-5-yl]-isoquinoline] | 55 | 160 | 1 | 51.6 | 1.1 |  |
| c1ccc2c(-c3ccc4[nH]nc(-c5nc6c(CCN7CCCC7)cccc6[nH]5)c4c3)cncc2c1 [Example 34, 4-{3-[4-(2-Pyrrolidin-1-yl-ethyl)-1H-benzoimidazol-2-yl]-1H-indazol-5-yl]-isoquinoline] | 200 | 580 | 1 | 26.9 | 19 |  |
| CC(CO)CNCc1cccc2[nH]c(-c3n[nH]c4ccc(-c5cncc6ccccc56)cc34)nc12 (stereo not drawn) [Example 35, 3-{[2-(5-Isoquinolin-4-yl-1H-indazol-3-yl)-1H-benzoimidazol-4-ylmethyl]-amino}-2-methyl-propan-1-ol] | 130 | 370 | 1 | 40.5 | 3.2 |  |

The remaining lines, values ahead:

| IC50 (HCT 116 cell line) [nM] | IC90 (HCT 116 cell line) [nM] | Ki (CDK2/cyclin A) [nM] | inhibition at 1 µM (FGFR1 tyrosine kinase) [%] | Ki (CDK4/cyclin D3) [nM] | Ki (FGFR1 tyrosine kinase) [nM] | Compound |
| --- | --- | --- | --- | --- | --- | --- |
| 3200 | 5000 | 1400 | 42.6 |  |  | C(=C\c1n[nH]c2ccc(-c3ccnc4ccccc34)cc12)/c1ccccc1 [Example 17, 4-[3-((E)-Styryl)-1H-indazol-5-yl]-quinoline] |
| 5000 | 5000 | 94 | 93.5 | 15 |  | Cc1c(-c2ccc3[nH]nc(/C=C/c4ccccc4)c3c2)ccc(CCCO)c1O [Example 22, 6-(3-Hydroxy-propyl)-2-methyl-3-[3-((E)-styryl)-1H-indazol-5-yl]-phenol] |
|  |  | 1100 | 45.4 | 690 |  | C(=C\c1n[nH]c2ccc(-c3ccc4ccncc4c3)cc12)/c1ccccc1 [Example 24, 7-[3-((E)Styryl)-1H-indazol-5-yl]-isoquinoline] |
| 330 | 1100 | 1 |  | 10 | 440 | c1ccc2c(-c3ccc4[nH]nc(-c5nc6ccccc6[nH]5)c4c3)cncc2c1 [Example 25, 4-[3-(1H-Benzoimidazol-2-yl)-1H-indazol-5-yl]-isoquinoline] |
